# Laboratory results published in PubChem BioAssay AID1963840 (Molecular Pharmacology Branch, DTP, NCI, 2024).
# Test system: 695427-040-R-J1-PDC complex spheroid viability
# Experiment: Anticancer human tumor 695427-040-R-J1-PDC patient-derived colon adenocarcinoma cell line growth inhibition [POLQ]
# Conditions: for IC50: curve of first compound; for viability, T/C: stronger effect = lower value
# Outline: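 Complex spheroid viability model combining PDC tumour cells with endothelial (HUVEC) and MSC stromal cells. Novobiocin, ART-558 or RP6685 were tested singly and in combination with standard and investigational anticancer drugs. Each was titrated in half-log steps from near clinical Cmax, or from 10 microM where Cmax was unknown.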
# [1] = second compound 0.0316 µM, first compound 0.0316 µM
# [2] = second compound 0.0316 µM, first compound 0.1 µM
# [3] = second compound 0.0316 µM, first compound 0.316 µM
# [4] = second compound 0.0316 µM, first compound 1 µM
# [5] = second compound 0.0316 µM, first compound 3.16 µM
# [6] = second compound 0.0316 µM, first compound 10 µM
# [7] = second compound 0.1 µM, first compound 0.0316 µM
# [8] = second compound 0.1 µM, first compound 0.1 µM
# [9] = second compound 0.1 µM, first compound 0.316 µM
# [10] = second compound 0.1 µM, first compound 1 µM
# [11] = second compound 0.1 µM, first compound 3.16 µM
# [12] = second compound 0.1 µM, first compound 10 µM
# [13] = second compound 0.316 µM, first compound 0.0316 µM
# [14] = second compound 0.316 µM, first compound 0.1 µM
# [15] = second compound 0.316 µM, first compound 0.316 µM
# [16] = second compound 0.316 µM, first compound 1 µM
# [17] = second compound 0.316 µM, first compound 3.16 µM
# [18] = second compound 0.316 µM, first compound 10 µM
# [19] = second compound 1 µM, first compound 0.0316 µM
# [20] = second compound 1 µM, first compound 0.1 µM
# [21] = second compound 1 µM, first compound 0.316 µM
# [22] = second compound 1 µM, first compound 1 µM
# [23] = second compound 1 µM, first compound 3.16 µM
# [24] = second compound 1 µM, first compound 10 µM
# [25] = second compound 3.16 µM, first compound 0.0316 µM
# [26] = second compound 3.16 µM, first compound 0.1 µM
# [27] = second compound 3.16 µM, first compound 0.316 µM
# [28] = second compound 3.16 µM, first compound 1 µM
# [29] = second compound 3.16 µM, first compound 3.16 µM
# [30] = second compound 3.16 µM, first compound 10 µM
# [31] = second compound 10 µM, first compound 0.0316 µM
# [32] = second compound 10 µM, first compound 0.1 µM
# [33] = second compound 10 µM, first compound 0.316 µM
# [34] = second compound 10 µM, first compound 1 µM
# [35] = second compound 10 µM, first compound 3.16 µM
# [36] = second compound 10 µM, first compound 10 µM
# 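Further: spheroids exposed to compounds for seven days.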
# 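Wherever viability, T/C is given: 100% = DMSO vehicle control viability.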
compound,measurement,setting,value
CC1COCCN1c1cc(-c2ccnn2C)c2ccnc(-c3ccn[nH]3)c2n1 (stereo not drawn) + Cc1cccc(N(C)C(=O)C2C(O)CCN2c2nc(C)cc(C(F)(F)F)c2C#N)c1,IC50,second compound 0.0316 µM,1910 nM
same,IC50,second compound 0.1 µM,2180 nM
same,IC50,second compound 0.316 µM,1360 nM
same,IC50,second compound 1 µM,1890 nM
same,IC50,second compound 3.16 µM,1980 nM
same,IC50,second compound 10 µM,1790 nM
same,"viability, T/C",[1],97.1%
same,"viability, T/C",[2],83%
same,"viability, T/C",[3],61.4%
same,"viability, T/C",[4],53.4%
same,"viability, T/C",[5],49%
same,"viability, T/C",[6],46.5%
same,"viability, T/C",[7],95.2%
same,"viability, T/C",[8],83.1%
same,"viability, T/C",[9],66.1%
same,"viability, T/C",[10],51.1%
same,"viability, T/C",[11],49.1%
same,"viability, T/C",[12],48.4%
same,"viability, T/C",[13],104%
same,"viability, T/C",[14],83.5%
same,"viability, T/C",[15],65.3%
same,"viability, T/C",[16],46.4%
same,"viability, T/C",[17],49.5%
same,"viability, T/C",[18],46.9%
same,"viability, T/C",[19],89.3%
same,"viability, T/C",[20],77.8%
same,"viability, T/C",[21],59.9%
same,"viability, T/C",[22],46.1%
same,"viability, T/C",[23],52.8%
same,"viability, T/C",[24],49.5%
same,"viability, T/C",[25],97.9%
same,"viability, T/C",[26],78.7%
same,"viability, T/C",[27],66.1%
same,"viability, T/C",[28],48.5%
same,"viability, T/C",[29],49%
same,"viability, T/C",[30],48%
same,"viability, T/C",[31],86.5%
same,"viability, T/C",[32],74.2%
same,"viability, T/C",[33],61.2%
same,"viability, T/C",[34],49.5%
same,"viability, T/C",[35],50.4%
same,"viability, T/C",[36],47.1%
CC1COCCN1c1cc(C2(S(C)(=N)=O)CC2)nc(-c2ccnc3[nH]ccc23)n1 (stereo not drawn) + Cc1cccc(N(C)C(=O)C2C(O)CCN2c2nc(C)cc(C(F)(F)F)c2C#N)c1,IC50,second compound 0.0316 µM,> 10000 nM
same,IC50,second compound 0.1 µM,> 10000 nM
same,IC50,second compound 0.316 µM,> 10000 nM
same,IC50,second compound 1 µM,> 10000 nM
same,IC50,second compound 3.16 µM,> 10000 nM
same,IC50,second compound 10 µM,> 10000 nM
same,"viability, T/C",[1],104%
same,"viability, T/C",[2],99.1%
same,"viability, T/C",[3],101%
same,"viability, T/C",[4],95.1%
same,"viability, T/C",[5],101%
same,"viability, T/C",[6],82.5%
same,"viability, T/C",[7],107%
same,"viability, T/C",[8],101%
same,"viability, T/C",[9],98.5%
same,"viability, T/C",[10],93.8%
same,"viability, T/C",[11],95.5%
same,"viability, T/C",[12],81.2%
same,"viability, T/C",[13],105%
same,"viability, T/C",[14],95.7%
same,"viability, T/C",[15],100%
same,"viability, T/C",[16],93.4%
same,"viability, T/C",[17],91.7%
same,"viability, T/C",[18],88.8%
same,"viability, T/C",[19],91.1%
same,"viability, T/C",[20],91.6%
same,"viability, T/C",[21],101%
same,"viability, T/C",[22],103%
same,"viability, T/C",[23],107%
same,"viability, T/C",[24],80.9%
same,"viability, T/C",[25],103%
same,"viability, T/C",[26],89.8%
same,"viability, T/C",[27],89.7%
same,"viability, T/C",[28],89.9%
same,"viability, T/C",[29],97%
same,"viability, T/C",[30],73.9%
same,"viability, T/C",[31],93.1%
same,"viability, T/C",[32],96.8%
same,"viability, T/C",[33],91.9%
same,"viability, T/C",[34],87.8%
same,"viability, T/C",[35],92.8%
same,"viability, T/C",[36],67.1%
CCCS(=O)(=O)Nc1ccc(F)c(C(=O)c2c[nH]c3ncc(-c4ccc(Cl)cc4)cc23)c1F + Cc1cccc(N(C)C(=O)C2C(O)CCN2c2nc(C)cc(C(F)(F)F)c2C#N)c1,IC50,second compound 0.0316 µM,> 10000 nM
same,IC50,second compound 0.1 µM,> 10000 nM
same,IC50,second compound 0.316 µM,> 10000 nM
same,IC50,second compound 1 µM,> 10000 nM
same,IC50,second compound 3.16 µM,> 10000 nM
same,IC50,second compound 10 µM,> 10000 nM
same,"viability, T/C",[1],113%
same,"viability, T/C",[2],105%
same,"viability, T/C",[3],102%
same,"viability, T/C",[4],100%
same,"viability, T/C",[5],116%
same,"viability, T/C",[6],86.8%
same,"viability, T/C",[7],129%
same,"viability, T/C",[8],111%
same,"viability, T/C",[9],104%
same,"viability, T/C",[10],109%
same,"viability, T/C",[11],111%
same,"viability, T/C",[12],82.6%
same,"viability, T/C",[13],101%
same,"viability, T/C",[14],118%
same,"viability, T/C",[15],96.3%
same,"viability, T/C",[16],109%
same,"viability, T/C",[17],123%
same,"viability, T/C",[18],77.5%
same,"viability, T/C",[19],112%
same,"viability, T/C",[20],111%
same,"viability, T/C",[21],102%
same,"viability, T/C",[22],108%
same,"viability, T/C",[23],127%
same,"viability, T/C",[24],73.2%
same,"viability, T/C",[25],100%
same,"viability, T/C",[26],104%
same,"viability, T/C",[27],103%
same,"viability, T/C",[28],114%
same,"viability, T/C",[29],112%
same,"viability, T/C",[30],104%
same,"viability, T/C",[31],101%
same,"viability, T/C",[32],100%
same,"viability, T/C",[33],92%
same,"viability, T/C",[34],98.8%
same,"viability, T/C",[35],108%
same,"viability, T/C",[36],77.9%
Cn1ncnc1[C@H]1c2n[nH]c(=O)c3cc(F)cc(c23)N[C@@H]1c1ccc(F)cc1 + Cc1cccc(N(C)C(=O)C2C(O)CCN2c2nc(C)cc(C(F)(F)F)c2C#N)c1,IC50,second compound 0.0316 µM,> 100 nM
same,IC50,second compound 0.1 µM,> 100 nM
same,IC50,second compound 0.316 µM,> 100 nM
same,IC50,second compound 1 µM,> 100 nM
same,IC50,second compound 3.16 µM,> 100 nM
same,IC50,second compound 10 µM,> 100 nM
same,"viability, T/C","second compound 0.0316 µM, first compound 0.000316 µM",99.1%
same,"viability, T/C","second compound 0.0316 µM, first compound 0.001 µM",97.2%
same,"viability, T/C","second compound 0.0316 µM, first compound 0.00316 µM",102%
same,"viability, T/C","second compound 0.0316 µM, first compound 0.01 µM",99%
same,"viability, T/C",[1],99.4%
same,"viability, T/C",[2],96.8%
same,"viability, T/C","second compound 0.1 µM, first compound 0.000316 µM",108%
same,"viability, T/C","second compound 0.1 µM, first compound 0.001 µM",91.2%
same,"viability, T/C","second compound 0.1 µM, first compound 0.00316 µM",98.8%
same,"viability, T/C","second compound 0.1 µM, first compound 0.01 µM",102%
same,"viability, T/C",[7],102%
same,"viability, T/C",[8],96.7%
same,"viability, T/C","second compound 0.316 µM, first compound 0.000316 µM",102%
same,"viability, T/C","second compound 0.316 µM, first compound 0.001 µM",102%
same,"viability, T/C","second compound 0.316 µM, first compound 0.00316 µM",96.6%
same,"viability, T/C","second compound 0.316 µM, first compound 0.01 µM",105%
same,"viability, T/C",[13],107%
same,"viability, T/C",[14],94.7%
same,"viability, T/C","second compound 1 µM, first compound 0.000316 µM",99.2%
same,"viability, T/C","second compound 1 µM, first compound 0.001 µM",98.3%
same,"viability, T/C","second compound 1 µM, first compound 0.00316 µM",89.5%
same,"viability, T/C","second compound 1 µM, first compound 0.01 µM",93.2%
same,"viability, T/C",[19],99.3%
same,"viability, T/C",[20],94.6%
same,"viability, T/C","second compound 3.16 µM, first compound 0.000316 µM",88.9%
same,"viability, T/C","second compound 3.16 µM, first compound 0.001 µM",101%
same,"viability, T/C","second compound 3.16 µM, first compound 0.00316 µM",92.5%
same,"viability, T/C","second compound 3.16 µM, first compound 0.01 µM",101%
same,"viability, T/C",[25],102%
same,"viability, T/C",[26],88.8%
same,"viability, T/C","second compound 10 µM, first compound 0.000316 µM",89.2%
same,"viability, T/C","second compound 10 µM, first compound 0.001 µM",87.4%
same,"viability, T/C","second compound 10 µM, first compound 0.00316 µM",87.8%
same,"viability, T/C","second compound 10 µM, first compound 0.01 µM",88.6%
same,"viability, T/C",[31],93.3%
same,"viability, T/C",[32],90.4%
